Reference: the NIST ThermoML archive (doi:10.1016/j.jct.2015.09.020)
Numbers after ± are expanded uncertainties.

Experiment: mn = molality of the nth substance listed, in mol/kg
Details: 101.3 kPa, Liquid

NCCCC(=O)O [4-aminobutanoic acid] + O
Details	speed of sound [m/s]
278.15 K, Frequency=2 MHz, Linear variable-path acoustic interferometer, m1 = 0.0495	1431.4 ± 1.7
278.15 K, Frequency=2 MHz, Linear variable-path acoustic interferometer, m1 = 0.0732	1433.1 ± 1.7
278.15 K, Frequency=2 MHz, Linear variable-path acoustic interferometer, m1 = 0.0959	1435.4 ± 1.7
278.15 K, Frequency=2 MHz, Linear variable-path acoustic interferometer, m1 = 0.1193	1436.9 ± 1.7
278.15 K, Frequency=2 MHz, Linear variable-path acoustic interferometer, m1 = 0.1412	1439 ± 1.7
278.15 K, Frequency=2 MHz, Linear variable-path acoustic interferometer, m1 = 0.1828	1442.1 ± 1.7
278.15 K, Frequency=2 MHz, Linear variable-path acoustic interferometer, m1 = 0.2085	1444.1 ± 1.8
278.15 K, Frequency=2 MHz, Linear variable-path acoustic interferometer, m1 = 0.2388	1446.9 ± 1.8
278.15 K, Frequency=2 MHz, Linear variable-path acoustic interferometer, m1 = 0.2699	1449.7 ± 1.8
278.15 K, Frequency=2 MHz, Linear variable-path acoustic interferometer, m1 = 0.2922	1452.3 ± 1.8
278.15 K, Frequency=2 MHz, Linear variable-path acoustic interferometer, m1 = 0.3224	1455.4 ± 1.8
278.15 K, Frequency=2 MHz, Linear variable-path acoustic interferometer, m1 = 0.3534	1457.4 ± 1.8
288.15 K, Frequency=3 MHz, Sing-around technique in a fixed-path interferometer, m1 = 0.0554	1470.3 ± 1.2
288.15 K, Frequency=3 MHz, Sing-around technique in a fixed-path interferometer, m1 = 0.0877	1472.6 ± 1.2
288.15 K, Frequency=3 MHz, Sing-around technique in a fixed-path interferometer, m1 = 0.0989	1473.5 ± 1.2
288.15 K, Frequency=3 MHz, Sing-around technique in a fixed-path interferometer, m1 = 0.1173	1474.9 ± 1.2
288.15 K, Frequency=3 MHz, Sing-around technique in a fixed-path interferometer, m1 = 0.1538	1479 ± 1.3
288.15 K, Frequency=3 MHz, Sing-around technique in a fixed-path interferometer, m1 = 0.1809	1481.1 ± 1.2
288.15 K, Frequency=3 MHz, Sing-around technique in a fixed-path interferometer, m1 = 0.211	1483 ± 1.2
288.15 K, Frequency=3 MHz, Sing-around technique in a fixed-path interferometer, m1 = 0.2389	1484.6 ± 1.3
288.15 K, Frequency=3 MHz, Sing-around technique in a fixed-path interferometer, m1 = 0.2692	1486.5 ± 1.3
288.15 K, Frequency=3 MHz, Sing-around technique in a fixed-path interferometer, m1 = 0.2861	1489.5 ± 1.4
288.15 K, Frequency=3 MHz, Sing-around technique in a fixed-path interferometer, m1 = 0.3181	1492.3 ± 1.3
288.15 K, Frequency=3 MHz, Sing-around technique in a fixed-path interferometer, m1 = 0.3496	1494.9 ± 1.4
298.15 K, Frequency=3 MHz, Sing-around technique in a fixed-path interferometer, m1 = 0.0494	1501.1 ± 1.2
298.15 K, Frequency=3 MHz, Sing-around technique in a fixed-path interferometer, m1 = 0.0781	1503.4 ± 1.2
298.15 K, Frequency=3 MHz, Sing-around technique in a fixed-path interferometer, m1 = 0.1017	1505.1 ± 1.2
298.15 K, Frequency=3 MHz, Sing-around technique in a fixed-path interferometer, m1 = 0.1227	1506.8 ± 1.2
298.15 K, Frequency=3 MHz, Sing-around technique in a fixed-path interferometer, m1 = 0.1469	1508.9 ± 1.3
298.15 K, Frequency=3 MHz, Sing-around technique in a fixed-path interferometer, m1 = 0.1846	1511.8 ± 1.3
298.15 K, Frequency=3 MHz, Sing-around technique in a fixed-path interferometer, m1 = 0.1944	1512.8 ± 1.3
298.15 K, Frequency=3 MHz, Sing-around technique in a fixed-path interferometer, m1 = 0.245	1516.7 ± 1.3
298.15 K, Frequency=3 MHz, Sing-around technique in a fixed-path interferometer, m1 = 0.2746	1519.2 ± 1.3
298.15 K, Frequency=3 MHz, Sing-around technique in a fixed-path interferometer, m1 = 0.2975	1521.1 ± 1.3
298.15 K, Frequency=3 MHz, Sing-around technique in a fixed-path interferometer, m1 = 0.3196	1522.6 ± 1.3
298.15 K, Frequency=3 MHz, Sing-around technique in a fixed-path interferometer, m1 = 0.3477	1525 ± 1.4

Details	mass density [kg/m3]
278.15 K, Pycnometric method, m1 = 0.0495	1001.55 ± 0.28
278.15 K, Pycnometric method, m1 = 0.0732	1002.25 ± 0.28
278.15 K, Pycnometric method, m1 = 0.0959	1002.93 ± 0.28
278.15 K, Pycnometric method, m1 = 0.1193	1003.65 ± 0.29
278.15 K, Pycnometric method, m1 = 0.1412	1004.35 ± 0.29
278.15 K, Pycnometric method, m1 = 0.1828	1005.72 ± 0.3
278.15 K, Pycnometric method, m1 = 0.2085	1006.55 ± 0.31
278.15 K, Pycnometric method, m1 = 0.2388	1007.5 ± 0.32
278.15 K, Pycnometric method, m1 = 0.2699	1008.41 ± 0.32
278.15 K, Pycnometric method, m1 = 0.2922	1009.03 ± 0.33
278.15 K, Pycnometric method, m1 = 0.3224	1009.87 ± 0.34
278.15 K, Pycnometric method, m1 = 0.3534	1010.83 ± 0.36
288.15 K, Vibrating tube method, m1 = 0.0554	1000.83 ± 0.11
288.15 K, Vibrating tube method, m1 = 0.0877	1001.66 ± 0.12
288.15 K, Vibrating tube method, m1 = 0.0989	1002.15 ± 0.13
288.15 K, Vibrating tube method, m1 = 0.1173	1002.71 ± 0.12
288.15 K, Vibrating tube method, m1 = 0.1538	1003.54 ± 0.13
288.15 K, Vibrating tube method, m1 = 0.1809	1004.28 ± 0.15
288.15 K, Vibrating tube method, m1 = 0.211	1005.14 ± 0.17
288.15 K, Vibrating tube method, m1 = 0.2389	1006.01 ± 0.18
288.15 K, Vibrating tube method, m1 = 0.2692	1006.87 ± 0.19
288.15 K, Vibrating tube method, m1 = 0.2861	1007.43 ± 0.2
288.15 K, Vibrating tube method, m1 = 0.3181	1008.36 ± 0.23
288.15 K, Vibrating tube method, m1 = 0.3496	1009.41 ± 0.26
298.15 K, Vibrating tube method, m1 = 0.0494	998.48 ± 0.11
298.15 K, Vibrating tube method, m1 = 0.0781	999.35 ± 0.12
298.15 K, Vibrating tube method, m1 = 0.1017	1000.09 ± 0.12
298.15 K, Vibrating tube method, m1 = 0.1227	1000.7 ± 0.13
298.15 K, Vibrating tube method, m1 = 0.1469	1001.41 ± 0.14
298.15 K, Vibrating tube method, m1 = 0.1846	1002.51 ± 0.15
298.15 K, Vibrating tube method, m1 = 0.1944	1002.74 ± 0.14
298.15 K, Vibrating tube method, m1 = 0.245	1004.3 ± 0.18
298.15 K, Vibrating tube method, m1 = 0.2746	1004.99 ± 0.17
298.15 K, Vibrating tube method, m1 = 0.2975	1005.61 ± 0.21
298.15 K, Vibrating tube method, m1 = 0.3196	1006.38 ± 0.22
298.15 K, Vibrating tube method, m1 = 0.3477	1007.09 ± 0.21
